Measured values from patent US10017534B2, “Method for producing Tebbe complex” (KURARAY CO., LTD., priority 2014, dated 2018).

Experiment: Measurement of solubility of Tebbe complex in a solvent (atomic absorption analysis of filtrate)
Details: for Solubility of Tebbe complex / Titanium atom contained in filtrate: 25° C.
Method: The measurement of the solubility of the Tebbe complex in a solvent was performed in the following manner. That is, 4 mL of a solvent of every kind was added to 1 g of a Tebbe complex obtained in the following Preparation Example 1; a solution after stirring at 25° C. for one hour was filtered with a membrane filter of 0.2 μm; the filtrate was subjected to atomic absorption analysis using the aforementioned polarized Zeeman atomic absorption spectrophotometer; and a titanium atom concentration was measured.
The measurement of the solubility of the Tebbe complex in a solvent was performed in the following manner. That is, 4 mL of a solvent of every kind was added to 1 g of the Tebbe complex obtained in Preparation Example 1; a solution after stirring at 25° C. for one hour was filtered with a membrane filter of 0.2 μm; and the filtrate was subjected to atomic absorption analysis using the aforementioned polarized Zeeman atomic absorption spectrophotometer, thereby measuring a titanium atom concentration.
Using a glove box, 1.0 g of the brownish-red crystal b1 of the Tebbe complex obtained in the method of Preparation Example 1 was weighed in a 20-mL eggplant type flask in an argon atmosphere, and a rotator and 4 mL of dehydrated hexane were added, followed by stirring at 25° C. for one hour. Thereafter, the resultant was allowed to stand and then filtered with a membrane filter of 0.2 μm, and 1.0 g of a filtrate containing the Tebbe complex was subjected to atomic absorption analysis, thereby measuring the solubility of the Tebbe complex.

## μ-chloro-μ-methylene-bis(η^5-cyclopentadienyl)titanium dimethylaluminum [Tebbe complex]
1,4-dioxane
  Solubility of Tebbe complex: 1.43 mmol/g
  Titanium atom contained in filtrate: 6.84 % by mass
2-hexene
  Solubility of Tebbe complex: 0.27 mmol/g
  Titanium atom contained in filtrate: 1.29 % by mass
2-methylpentane
  Solubility of Tebbe complex: 0.21 mmol/g
  Titanium atom contained in filtrate: 1.01 % by mass
Aliphatic hydrocarbons of Test Examples 1 to 6, 25° C.
  solubility of the Tebbe complex in 1 g of the solvent: ≤ 0.5 mmol/g
Aromatic hydrocarbons and ether compounds of Comparative Test Examples 1 to 8, 25° C.
  solubility of the Tebbe complex in 1 g of the solvent: more than 0.5 mmol/g
benzene
  Solubility of Tebbe complex: 1.18 mmol/g
  Titanium atom contained in filtrate: 5.65 % by mass
cyclohexane
  Solubility of Tebbe complex: 0.45 mmol/g
  Titanium atom contained in filtrate: 2.15 % by mass
Cyclopentyl methyl ether
  Solubility of Tebbe complex: 1.29 mmol/g
  Titanium atom contained in filtrate: 6.17 % by mass
Diisopropyl ether
  Solubility of Tebbe complex: 0.60 mmol/g
  Titanium atom contained in filtrate: 2.87 % by mass
dodecane
  Solubility of Tebbe complex: 0.12 mmol/g
  Titanium atom contained in filtrate: 0.57 % by mass
heptane
  Solubility of Tebbe complex: 0.21 mmol/g
  Titanium atom contained in filtrate: 1.01 % by mass
hexane
  Solubility of Tebbe complex: 0.22 mmol/g
  Titanium atom contained in filtrate: 1.05 % by mass
Methylene chloride
  Solubility of Tebbe complex: 1.49 mmol/g
  Titanium atom contained in filtrate: 7.13 % by mass
p-xylene
  Solubility of Tebbe complex: 0.94 mmol/g
  Titanium atom contained in filtrate: 4.50 % by mass
tetrahydrofuran
  Solubility of Tebbe complex: 1.71 mmol/g
  Titanium atom contained in filtrate: 8.19 % by mass
toluene
  Solubility of Tebbe complex: 0.93 mmol/g
  Titanium atom contained in filtrate: 4.45 % by mass
